Results published in US11633382B2, “Treatment of ER-negative breast cancer with an PDGF-CC inhibitor and anti-estrogen” (Paracrine Therapeutics AB, priority 2015, dated 2023).

How the values were obtained:
[1] = tested on: Human MDA-MB-231 cells; experiment: MDA-MB-231 orthotopic xenograft, anti-PDGF-CC and aromatase inhibitor (Example 2); format: in vivo, SCID mice; settings: A3B6 i.p. twice a week, letrozole 1 mg/dose oral daily; combination p<0.01 vs control, p<0.05 vs A3B6, p<0.001 vs letrozole (FIG. 7)
Excerpt: All therapeutic administrations were open-label.

[2] = tested on: MDA-MB-231 tumors (basal-like subtype); experiment: MDA-MB-231 xenograft in SCID mice, tumor growth and angiogenesis (Example 1); format: in vivo; settings: tamoxifen oral gavage daily with control antibody or A3B6 (FIG. 6c-d)
Method: 2×10^6 Human MDA-MB-231 cells were inoculated subcutaneously in immunodeficient mice. […] When tumors were palpable (longest diameter >3 mm), mice were randomized and treated with Tamoxifen (3 mg/kg) or vehicle (corn oil) via oral gavage daily.
In order to investigate whether pharmacological targeting of PDGF-CC as a mono-therapy impacted on breast tumor growth or angiogenesis, we treated SCID mice bearing orthotopically implanted MDA-MB-231 tumors (basal-like subtype) twice-weekly with the PDGF-CC antibody, A3B6 or with control antibody.
The clinically most important distinguishing feature of luminal subtype breast tumors is the expression of ERα, which confers sensitivity to hormone therapy, such as tamoxifen. We next set out to investigate whether targeting of PDGF-CC would convey sensitivity to hormone therapy to previously impervious ER-negative breast tumors of basal-like subtype. Non-transgenic mice bearing orthopically transplanted tumors from MMTV-PyMT; Pdgfc^+/+ or MMTV-PyMT; Pdgfc^lacz/lacz mice were treated daily with tamoxifen starting from […].

[3] = tested on: MMTV-PyMT; Pdgfc+/+ tumors; experiment: Orthotopically transplanted MMTV-PyMT; Pdgfc+/+ (wt) tumors, tamoxifen trial; format: in vivo, FVB/N mice; settings: tamoxifen daily (FIG. 6a)
Method: (§1) 3 weeks old FVB/N (common background strain for both MMTV-PyMT and PDGF-C mice) female mice were anesthetized and maintained under Isolfluorane during the surgical procedure. A 4 mm incision under the nipple of the right abdominal mammary gland created a pocket where a 2×2 mm tumor piece (kept on ice, either from MMTV-PyMT or MMTV-PyMT; PDGF-C tumors) was inserted. Suturing was performed with 6-O Ethilon polyamide filament (Ethicon). Pain-killer and anti-inflammatory Rimadyl (5 mg/kg body weight; Orion Pharma Animal Health) was injected i.p. at the end of the surgical procedure and for the following two days. For the therapeutic trial, Tamoxifen (2 mg/mL) was diluted in corn oil (vehicle) and administered via oral gavage daily.
(§2) Mouse mammary cell lines MMTV . . . MMTV/PDGF-C−/− . . . (established in our laboratory) were orthotopically injected into the 4th inguinal mammary gland on FVB/N mice. Furthermore, small tumor pieces (2 mm^3) of MMTV-PyMT and MMTV-PDGF-CC−/− tumors were directly orthotopically transplanted under anesthesia. The mice were subjected to Rimadyl immediately after the surgery and the following two days for analgetics. The tumors were measured twice a week and mice were euthanized as described above. […]

[4] = tested on: MMTV-PyMT; Pdgfc^lacz/lacz tumors; experiment: Orthotopically transplanted MMTV-PyMT; Pdgfc lacz/lacz tumors, tamoxifen trial; format: in vivo, FVB/N mice; settings: Pdgfc-deficient tumors
Method: as §1, §2

[5] = tested on: ER-negative breast cancer; settings: ER-negative disease, patients; cited from earlier work

N#Cc1ccc(C(c2ccc(C#N)cc2)n2cncn2)cc1 [letrozole]
tumor growth, difference between groups [1]: no other differences are statistically significant

CCC(=C(c1ccccc1)c1ccc(OCCN(C)C)cc1)c1ccccc1 [tamoxifen, 2-[4-(1,2-diphenylbut-1-enyl)phenoxy]-N,N-dimethyl-ethanamine]
growth of fully established MDA-MB-231 tumors [2]: unable to influence the growth
tumor growth rate vs untreated mice [3]: continued to grow at a similar rate
tumor growth ([4]; tamoxifen daily (FIG. 6b)): severely growth-retarded
tumor volume at the end of the trial ([4]; tamoxifen daily, untreated tumors had grown): reduced volume
effect on breast cancer recurrence or mortality [5]: little or no effect
